Test system: human B cells
Test: IL-10 induction in human B cells cultivated with anti-IgM plus CpG, IL-10 measured in cell culture supernatants
Type: cell-based
Conditions: 2 consecutive days, molecule at 0.25 μM final concentration
Procedure: Human B cells isolated magnetically through negative selection (B Cell Isolation Kit II, human, Miltenyi ref: 130-091-151) were cultivated for 2 consecutive days in the presence of anti-IgM plus CpG in the presence of the indicated molecule (see table 3) at 0.25μM final concentration. IL-10 was measured in cell culture supernatants.
Human B cells isolated magnetically through negative selection (B Cell Isolation Kit II, human, Miltenyi ref: 130-091-151) were cultivated for 2 consecutive days in the presence of anti-IgM plus CpG in the presence of DMSO (as control) or in the presence of the tested molecules at 0.25 microM final concentration. IL-10 was measured in cell culture supernatants. NS: non stimulated B cell culture condition.

## N-(2-(4-fluorophenyl)imidazo[1,2-a]pyridin-6-yl)-2-methoxybenzamide [Compound 217]
  II-10 Induction Mean (pg/mL) human: 2.06 pg/mL

From US20250283038A1, “COMPOUNDS INDUCING PRODUCTION OF PROTEINS BY IMMUNE CELLS” (UNIVERSITE PARIS CITE, priority 2022, published 2025)
